Literature values in patent publication US20190008973A1, “INTRALIPID-IODINE FOR IMAGING” (priority 2017, published 2019).
Where two headings read alike, the source gives them in different places.

How the values were obtained:
[1] = test system: propofol-mediated hypotension; conditions: cited from earlier work
hippocampal slices = conditions: cited from earlier work
[2] = test system: acetylcholinesterase (AChE) / neuronal degeneration; conditions: cited from earlier work; for serum AChE: rat, in vivo
free fatty acid efflux = conditions: cited from earlier work; for I/R-evoked FFA efflux: 20-min ischemia, 40 min reperfusion
[3] = test system: myocardial ischemia-reperfusion injury; conditions: cited from earlier work
[4] = test system: fallopian tube and adnexal tissue; conditions: cited from earlier work
[5] = test system: ischemia-reperfusion (IR) injury; conditions: cited from earlier work
mitochondrial ATPase = target: T1, mitochondrial ATPase (Homo sapiens, UniProt P06576+P25705); conditions: cited from earlier work; for kind of inhibition: reciprocal plots
T1 construct: mitochondrial ATPase prepared by the chloroform extraction method; from tissue; host or cells: mitochondria

[6] = target: T2, N-methyl-D-aspartate receptor channels (Mus musculus, UniProt P35438); conditions: cited from earlier work
T2 construct: cultured cortical neurons from the mouse; endogenous in cells; host or cells: cultured mouse cortical neurons

total spinal anesthesia = conditions: in vivo; cited from earlier work
[7] = test system: spinal cord ischemia and reperfusion; conditions: intravenous; cited from earlier work

T1 sequence (P25705 44-553): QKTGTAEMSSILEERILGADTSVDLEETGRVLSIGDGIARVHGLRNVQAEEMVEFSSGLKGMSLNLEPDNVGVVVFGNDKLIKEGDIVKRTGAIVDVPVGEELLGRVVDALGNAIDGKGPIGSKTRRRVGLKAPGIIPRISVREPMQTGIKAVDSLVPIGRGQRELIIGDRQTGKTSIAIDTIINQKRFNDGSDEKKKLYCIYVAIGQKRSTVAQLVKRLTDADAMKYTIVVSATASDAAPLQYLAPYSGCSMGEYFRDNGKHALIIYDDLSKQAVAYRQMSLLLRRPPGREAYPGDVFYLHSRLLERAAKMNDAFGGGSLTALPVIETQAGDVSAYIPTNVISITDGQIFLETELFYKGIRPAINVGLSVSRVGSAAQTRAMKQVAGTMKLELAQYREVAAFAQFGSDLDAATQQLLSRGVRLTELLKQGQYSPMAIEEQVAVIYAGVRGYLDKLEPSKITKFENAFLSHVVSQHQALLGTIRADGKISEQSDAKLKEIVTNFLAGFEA
T1 sequence (P06576 48-529): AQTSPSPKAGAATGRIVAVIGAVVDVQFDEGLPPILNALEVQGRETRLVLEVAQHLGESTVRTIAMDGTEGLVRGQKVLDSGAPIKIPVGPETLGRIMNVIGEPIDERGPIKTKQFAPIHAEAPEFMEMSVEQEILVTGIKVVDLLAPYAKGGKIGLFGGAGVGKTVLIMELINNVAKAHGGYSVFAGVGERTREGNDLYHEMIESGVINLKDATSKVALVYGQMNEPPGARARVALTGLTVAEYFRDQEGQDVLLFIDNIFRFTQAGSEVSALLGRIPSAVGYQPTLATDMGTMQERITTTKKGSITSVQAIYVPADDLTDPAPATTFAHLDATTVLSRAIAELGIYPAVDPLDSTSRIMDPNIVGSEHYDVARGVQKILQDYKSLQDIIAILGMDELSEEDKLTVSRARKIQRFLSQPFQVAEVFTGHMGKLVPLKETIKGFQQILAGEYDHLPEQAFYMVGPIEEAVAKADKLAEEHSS
T1 sequence (P36542 26-298 partner): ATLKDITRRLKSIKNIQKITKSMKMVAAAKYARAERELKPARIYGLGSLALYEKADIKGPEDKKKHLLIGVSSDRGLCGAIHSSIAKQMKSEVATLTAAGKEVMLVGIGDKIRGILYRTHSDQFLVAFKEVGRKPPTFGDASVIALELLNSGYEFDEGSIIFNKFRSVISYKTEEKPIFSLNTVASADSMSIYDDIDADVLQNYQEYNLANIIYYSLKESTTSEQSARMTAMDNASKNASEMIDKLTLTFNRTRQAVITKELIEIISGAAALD
T1 sequence (P30049 23-168 partner): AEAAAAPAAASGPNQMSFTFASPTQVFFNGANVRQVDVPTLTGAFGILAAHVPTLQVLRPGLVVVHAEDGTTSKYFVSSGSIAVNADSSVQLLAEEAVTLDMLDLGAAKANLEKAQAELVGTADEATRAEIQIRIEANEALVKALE
T1 sequence (P56381 2-51 partner limits assumed): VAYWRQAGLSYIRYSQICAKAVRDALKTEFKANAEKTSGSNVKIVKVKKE

Compound: 20% BSA
- effect on propofol induced cortical burst suppression ([1]; EEG): −2+/−1%

Compound: CCCCC/C=C\C/C=C\C/C=C\C/C=C\CCCC(=O)O [Arachidonic acid, 5,8,11,14-eicosateraenoic acid]
- protection from glutamate and H(2)O(2) injury (hippocampal slices; 1-10 microM): dose dependently protected

Compound: CC(C)(c1ccc(OCC2CO2)cc1)c1ccc(OCC2CO2)cc1 (stereo not drawn) [BADGE, bisphenol A diglycidyl ether]
- effect on neuroprotection by arachidonic acid (hippocampal slices): completely abolished

Compound: O=C(/C=C/c1ccc(O)c(O)c1)OCCc1ccccc1 [CAPE, caffeic acid phenethyl ester]
- neuronal degeneration ([2]; histologic examination): significant effect on protection of neuronal degeneration
- serum AChE [2]: inhibited AChE

Compound: O=C1CN(/N=C/c2ccc(-c3ccc([N+](=O)[O-])cc3)o2)C(O)=N1 [Dantrolene]
- I/R-evoked FFA efflux (free fatty acid efflux): significantly inhibited I/R-evoked release of docosahexaenoic, arachidonic, linoleic and oleic acids

Compound: FC(F)OC(Cl)C(F)(F)F (stereo not drawn) [IS, isoflurane]
- plasma lactate dehydrogenase ([3]; 3 h after reperfusion, group C 676+/−82): 456+/−58 U/L
- plasma creatine kinase ([3]; 3 h after reperfusion, group C 2373+/−529): 1725+/−230 U/L
- myocardial infarct size 3 h after reperfusion ([3]; group C 39%+/−6%): 20%+/−8%

Compound: CNC(=O)c1c(I)c(NC(C)=O)c(I)c(C(=O)O)c1I.CNC[C@H](O)[C@@H](O)[C@H](O)[C@H](O)CO [Iothalamate meglumine 60%, iothalamate meglumine]
- pathologic response in tube or peritoneal cavity ([4]; rabbit, in vivo): mild inflammatory infiltrate, mucosal edema, giant cell reaction, and periovarian adhesions

Compound: CC(=O)N(CC(O)CO)c1c(I)c(C(=O)NCCO)c(I)c(C(=O)NCC(O)CO)c1I (stereo not drawn) [Ioxilan, ioxilan]
- pathologic response in tube or peritoneal cavity ([4]; histology): no pathologic response

Compound: Cn1cc(C2=C(c3ccc(Cl)cc3Cl)C(=O)NC2=O)c2ccccc21 [SB216763]
- cardioprotection in sham-operated hearts exposed to IR ([5]; 1% ILP 15 min): conferred cardioprotection
- cardioprotection in hypertrophied myocardium [5]: failed to exert cardioprotection

Compound: C/C=C(/C)C(=O)O[C@H]1C(C)=C2[C@H]([C@@H]1OC(=O)CCCCCCC)[C@@](C)(OC(C)=O)C[C@H](OC(=O)CCC)[C@@]1(O)[C@H]2OC(=O)[C@@]1(C)O [Thapsigargin]
- FFA efflux in the absence of ischemia (free fatty acid efflux; rat, in vivo): elicited significant elevations in the efflux of myristic, arachidonic and linoleic acids

Compound: C1CCC[C@H]2CCCN3CC[C@@H](CCCCCC[C@@H]4CCCN5CC[C@@H](CC1)O[C@@H]45)O[C@@H]23 [Xestospongin C]
- I/R-evoked FFA efflux (free fatty acid efflux): failed to affect I/R-evoked FFA efflux

Compound: CCOC(=O)c1ccc(N)cc1 [benzocaine]
- inhibition of the enzyme (mitochondrial ATPase): inhibits the enzyme at all pH values

Compound: C[N+](C)(C)CC[N+]1(C)Cc2c(Cl)c(Cl)c(Cl)c(Cl)c2C1 [chlorisondamine]
- lowering of MAP ([1]; 2.5 mg/kg IV): 56+/−3%

Compound: CN(C)CCCN1c2ccccc2Sc2ccc(Cl)cc21 [chlorpromazine]
- kind of inhibition (mitochondrial ATPase): non-competitive

Compound: CCOP(=S)(OCC)Oc1nc(Cl)c(Cl)cc1Cl [chlorpyriphos, Chlorpyriphos]
- serum AChE [2]: inhibited AChE

Compound: CCCCOc1cc(C(=O)NCCN(CC)CC)c2ccccc2n1 [dibucaine]
- kind of inhibition (mitochondrial ATPase): non-competitive

Compound: CNC(=O)c1c(I)c(NC(C)=O)c(I)c(C(=O)O)c1I.CNC[C@H](O)[C@@H](O)[C@H](O)[C@H](O)CO [iothalamate meglumine 30%, iothalamate meglumine]
- pathologic response in tube or peritoneal cavity ([4]; rabbit, in vivo): no pathologic response

Compound: CNC1(c2ccccc2Cl)CCCCC1=O (stereo not drawn) [ketamine]
- effect on emulsion-induced currents [6]: inhibited

Compound: CCN(CC)CC(=O)Nc1c(C)cccc1C [lidocaine]
- kind of inhibition (mitochondrial ATPase): non-competitive
- further time to consciousness (total spinal anesthesia): 80 min
- time to spontaneous respiration (total spinal anesthesia): 45 min

Compound: CCCC(C)C1(CC)C(=O)NC(=S)NC1=O (stereo not drawn) [thiopental]
- injured animals [7]: 100%

Compound: CN1CCN(CCCN2c3ccccc3Sc3ccc(C(F)(F)F)cc32)CC1 [trifluoperazine]
- I/R-evoked FFA efflux (free fatty acid efflux): very effective in suppressing ischemia/reperfusion evoked release of all six FFAs

Compound: DL-AP5
- effect on emulsion-induced currents [6]: inhibited

Compound: Ryanodine
- I/R-evoked FFA efflux (free fatty acid efflux): significantly enhanced ischemia/reperfusion-elicited efflux of linoleic acid

Compound: picrotoxin
- effect on emulsion-induced currents [6]: not affected
